Drawing on patent US9815796B2 (Merck Sharp & Dohme Corp., priority 2013, dated 2017), this text covers Ki for 27 compounds.

A word on the Ki: it is the dissociation constant of the complex between target and ligand, obtained from inhibition or displacement.

Like-named read-outs stand apart in the source and are kept apart here.

Assay [1] concerns the target Rhesus PDE2A3 (Macaca mulatta, UniProt B3VTJ2). The assay can be described thus: PDE2 fluorescence polarization (IMAP FP) inhibition assay, rhesus enzyme. The format is biochemical, rhesus macaque. Put shortly:
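IMAP FP (mP from parallel and perpendicular fluorescence against substrate-only control) was read ≥1 h after adding binding reagent. The preceding 60 min room-temperature reaction contained FAM-cAMP (50 nM) and cGMP (1 uM) in pH 7.2 Tris buffer with MgCl2 and DTT. Enzyme was supernatant of sonicated AD293 cells expressing rhesus PDE2A3; compounds were 3-fold titrated, DMSO 1% final.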

For assay [2], the target named is human PDE2A1 (Homo sapiens (Human), UniProt O00408). Kind of assay: IMAP FP PDE selectivity panel, human PDE2A1. The format is biochemical. Put shortly: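 IMAP FP format: substrate 50 nM FAM-cAMP plus 1000 nM cGMP, enzyme (insect-cell GST-tagged human PDE2A1) at ~20% conversion, 60 min reaction at room temperature. Apparent inhibition constants calculated from parallel/perpendicular fluorescence with KM 10,000 nM.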
Sequence of human PDE2A1 (O00408 other isoform, or with tags, fused parts or gaps): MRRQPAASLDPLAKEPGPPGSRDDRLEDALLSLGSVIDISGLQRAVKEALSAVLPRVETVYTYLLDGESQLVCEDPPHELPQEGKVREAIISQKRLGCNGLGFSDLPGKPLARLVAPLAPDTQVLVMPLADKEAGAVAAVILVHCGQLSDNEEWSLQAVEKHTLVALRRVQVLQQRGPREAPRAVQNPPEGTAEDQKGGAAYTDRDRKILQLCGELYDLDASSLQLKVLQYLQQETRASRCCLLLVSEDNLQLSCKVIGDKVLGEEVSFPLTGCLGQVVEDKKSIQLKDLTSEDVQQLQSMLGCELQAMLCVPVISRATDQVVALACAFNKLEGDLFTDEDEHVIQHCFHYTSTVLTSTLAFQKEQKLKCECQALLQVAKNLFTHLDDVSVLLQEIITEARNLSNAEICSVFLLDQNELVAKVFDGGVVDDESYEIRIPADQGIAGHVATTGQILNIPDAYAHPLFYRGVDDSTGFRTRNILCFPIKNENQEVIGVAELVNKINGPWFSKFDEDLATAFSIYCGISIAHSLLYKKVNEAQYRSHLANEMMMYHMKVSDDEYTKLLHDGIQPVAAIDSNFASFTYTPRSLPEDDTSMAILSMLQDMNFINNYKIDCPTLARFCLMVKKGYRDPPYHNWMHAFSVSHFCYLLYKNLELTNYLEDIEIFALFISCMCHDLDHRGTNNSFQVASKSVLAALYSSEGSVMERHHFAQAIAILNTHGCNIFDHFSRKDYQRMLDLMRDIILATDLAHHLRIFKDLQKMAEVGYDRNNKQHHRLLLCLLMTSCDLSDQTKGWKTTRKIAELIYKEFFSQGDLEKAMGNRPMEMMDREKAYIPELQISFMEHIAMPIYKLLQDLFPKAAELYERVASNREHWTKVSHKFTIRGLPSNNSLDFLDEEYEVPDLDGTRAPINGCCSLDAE

[3] abbreviates: Rhesus PDE2, Lab A, read-out: Rhesus PDE2 Ki (nM) - Lab A.
[4] abbreviates: Human PDE2, Lab A, read-out: Human PDE2 Ki (nM) - Lab A.
Setting [5] is: Rhesus PDE2, Lab B, read-out: Rhesus PDE2 Ki (nM) - Lab B.
The mark [6] stands for this setting: Human PDE2, Lab B, read-out: Human PDE2 Ki (nM) - Lab B.

Sequence of Rhesus PDE2A3 (B3VTJ2 1-941): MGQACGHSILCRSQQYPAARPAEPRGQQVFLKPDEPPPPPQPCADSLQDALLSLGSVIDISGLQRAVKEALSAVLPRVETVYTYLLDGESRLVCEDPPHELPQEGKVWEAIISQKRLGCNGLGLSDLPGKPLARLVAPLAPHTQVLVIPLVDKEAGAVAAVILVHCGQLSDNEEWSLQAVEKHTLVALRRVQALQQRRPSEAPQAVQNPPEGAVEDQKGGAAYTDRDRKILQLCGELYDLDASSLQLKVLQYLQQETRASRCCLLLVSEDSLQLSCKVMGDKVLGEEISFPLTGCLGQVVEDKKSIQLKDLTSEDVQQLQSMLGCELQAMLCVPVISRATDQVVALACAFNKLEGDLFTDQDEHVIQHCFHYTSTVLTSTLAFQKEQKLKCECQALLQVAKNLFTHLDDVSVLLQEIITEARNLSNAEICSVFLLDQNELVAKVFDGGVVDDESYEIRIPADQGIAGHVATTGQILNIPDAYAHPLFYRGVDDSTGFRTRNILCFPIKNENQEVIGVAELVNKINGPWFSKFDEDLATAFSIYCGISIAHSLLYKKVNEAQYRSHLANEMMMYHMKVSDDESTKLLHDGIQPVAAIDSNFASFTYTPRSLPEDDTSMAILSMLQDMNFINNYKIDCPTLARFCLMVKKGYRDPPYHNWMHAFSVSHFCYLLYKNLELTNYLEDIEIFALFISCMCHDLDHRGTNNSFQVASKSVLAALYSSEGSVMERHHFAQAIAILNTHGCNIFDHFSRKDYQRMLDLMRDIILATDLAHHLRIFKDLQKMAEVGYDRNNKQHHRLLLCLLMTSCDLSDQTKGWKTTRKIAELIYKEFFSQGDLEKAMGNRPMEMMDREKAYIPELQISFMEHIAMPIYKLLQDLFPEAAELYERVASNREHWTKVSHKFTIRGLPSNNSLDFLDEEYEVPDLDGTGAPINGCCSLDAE

Consider `Cc1nc(C(=O)NC(C(=O)O)c2ccc(C(F)(F)F)cc2)cc(=O)[nH]1` (single isomer, unassigned) [Example 327], for which the Ki is 4550 nM in assay [1] (setting [3]) and 8100 nM in assay [2] (setting [4]).

For `CC1([C@@H](NC(=O)c2cc(=O)[nH]c(C3CC3)n2)c2ccc(S(F)(F)(F)(F)F)cc2)CC1` [Example 454, 2-cyclopropyl-N-{(R)-(1-methylcyclopropyl)[4-(pentafluoro-λ^6-sulfanyl)phenyl]methyl}-6-oxo-1,6-dihydropyrimidine-4-carboxamide], the inhibition constant (Ki) in assay [1] (setting [5]) came out at 3.8 nM; in assay [2] (setting [6]), 4 nM.

`O=C(NC1(c2ccc(C(F)(F)F)cc2)COC1)c1cc(=O)[nH]c(-c2ccccc2)n1` [Example 402, 6-oxo-2-phenyl-N-{3-[4-(trifluoromethyl)phenyl]oxetan-3-yl}-1,6-dihydropyrimidine-4-carboxamide]: the Ki in assay [1] (setting [5]) worked out at 38 nM; in assay [2] (setting [6]) it was 29 nM.

For `COc1ccc(C(C)(C)c2nc(C(=O)N[C@@H](c3ccc(SC(F)(F)F)cc3)C(C)C)cc(=O)[nH]2)cc1` [Example 490, 2-[1-(4-methoxyphenyl)-1-methylethyl]-N-[(1R)-2-methyl-1-{4-[(trifluoromethyl)sulfanyl]phenyl}propyl]-6-oxo-1,6-dihydropyrimidine-4-carboxamide], the Ki in assay [1] (setting [5]) is 43 nM; in assay [2] (setting [6]), 31 nM.

Consider `CC[C@@H](NC(=O)c1cc(=O)[nH]c(-c2ncccn2)n1)c1ccc(C(F)(F)F)c(F)c1` [Example 264, N-{(1R)-1-[3-fluoro-4-(trifluoromethyl)phenyl]propyl}-6-oxo-1,6-dihydro-2,2′-bipyrimidine-4-carboxamide], for which the Ki in assay [1] (setting [3]) is 4.6 nM; in assay [1] (setting [5]), 7.9 nM; in assay [2] (setting [6]), 7.7 nM.

With `CC(C)[C@@H](NC(=O)c1cc(=O)[nH]c(-c2ccccc2)n1)c1ccc(SC(F)(F)F)c(F)c1` [Example 407, N-[(1R)-1-{3-fluoro-4-[(trifluoromethyl)sulfanyl]phenyl}-2-methylpropyl]-6-oxo-2-phenyl-1,6-dihydropyrimidine-4-carboxamide], the results for the Ki in assay [1] (setting [5]) and in assay [2] (setting [6]) were 4.5 nM and 3.6 nM, respectively.

`Cc1nc(C(=O)NC(C(=O)O)c2ccc(C(F)(F)F)cc2)cc(=O)[nH]1` (single isomer, unassigned) [Example 328]: the Ki came out at 33 nM in assay [1] (setting [3]) and 38 nM in assay [2] (setting [4]).

As to `CC[C@@H](NC(=O)c1cc(=O)[nH]c(Cc2ccc(OC)cc2)n1)c1ccc(OC(F)(F)F)cc1` [Example 485, 2-(4-methoxybenzyl)-6-oxo-N-{(1R)-1-[4-(trifluoromethoxy)phenyl]propyl}-1,6-dihydropyrimidine-4-carboxamide], the Ki was 1.9 nM in assay [1] (setting [5]) and 1.5 nM in assay [2] (setting [6]).

Turning to `COc1cccc(Cc2nc(C(=O)N[C@H](C)c3ccc(C(F)(F)F)cc3)cc(=O)[nH]2)c1` [Example 140, 2-(3-methoxybenzyl)-6-oxo-N-{(1R)-1-[4-(trifluoromethyl)phenyl]ethyl}-1,6-dihydropyrimidine-4-carboxamide], the Ki turned out to be 6.5 nM in assay [1] (setting [3]) and 5.1 nM in assay [2] (setting [4]).

For the compound `C[C@@H](NC(=O)c1cc(=O)[nH]c(-c2ccccc2)n1)c1ccc(OC(F)(F)F)c(F)c1` [Example 154, N-{(1R)-1-[3-fluoro-4-(trifluoromethoxy)phenyl]ethyl}-6-oxo-2-phenyl-1,6-dihydropyrimidine-4-carboxamide], the results for the Ki in assay [1] (setting [3]) and in assay [2] (setting [4]) were 2.6 nM and 1.5 nM, respectively.

Take `C[C@@H](NC(=O)c1cc(=O)[nH]c(C2CC2)n1)c1ccc(CC(F)(F)F)cc1` [Example 217, 2-cyclopropyl-6-oxo-N-{(1R)-1-[4-(2,2,2-trifluoroethyl)phenyl]ethyl}-1,6-dihydropyrimidine-4-carboxamide]: the results for the Ki in assay [1] (setting [3]) and in assay [2] (setting [4]) were 29 nM and 14 nM, respectively.

`CC[C@@H](NC(=O)c1cc(=O)[nH]c(-c2ccccc2)n1)c1ccc(SC(F)(F)F)cc1` [Example 151, 6-oxo-2-phenyl-N-[(1R)-1-{4-[(trifluoromethyl)sulfanyl]phenyl}propyl]-1,6-dihydropyrimidine-4-carboxamide]: the inhibition constant (Ki) worked out at 3.3 nM in assay [1] (setting [3]) and 3.2 nM in assay [2] (setting [4]).

Take `CC(C)c1ccc([C@@H](C)NC(=O)c2cc(=O)[nH]c(C3CC3)n2)cc1` [Example 298, 2-cyclopropyl-N-{(1R)-1-[4-(1-methylethyl)phenyl]ethyl}-6-oxo-1,6-dihydropyrimidine-4-carboxamide]: the Ki in assay [1] (setting [3]) was 18 nM; in assay [2] (setting [4]), 13 nM.

Consider `O=C(N[C@@H](c1ccc(OC(F)F)cc1)C1CC1)c1cc(=O)[nH]c(-c2ccccc2)n1` [Example 448, N-{(R)-cyclopropyl[4-(difluoromethoxy)phenyl]methyl}-6-oxo-2-phenyl-1,6-dihydropyrimidine-4-carboxamide], for which the Ki in assay [1] (setting [5]) was found to be 13 nM; in assay [2] (setting [6]), 12 nM.

In the case of `CC(C)(NC(=O)c1cc(=O)[nH]c(-c2ccccc2)n1)c1ccccc1Br` [Example 373, N-[1-(2-bromophenyl)-1-methylethyl]-6-oxo-2-phenyl-1,6-dihydropyrimidine-4-carboxamide], the Ki in assay [1] (setting [3]) is 155 nM; in assay [1] (setting [5]), 225 nM; in assay [2] (setting [6]), 183 nM.

For the compound `Cc1nc(C(=O)NC(CO)c2ccc(C(F)(F)F)cc2)cc(=O)[nH]1` (single isomer, unassigned) [Example 312, (R)- or (S)-N-{2-hydroxy-1-[4-(trifluoromethyl)phenyl]ethyl}-2-methyl-6-oxo-1,6-dihydropyrimidine-4-carboxamide], the inhibition constant Ki was determined as 71 nM in assay [1] (setting [3]), 41 nM in assay [2] (setting [4]) and 52 nM in assay [2] (setting [6]).

`COc1cc(C(C)NC(=O)c2cc(=O)[nH]c(-c3ccccc3)n2)cc(OC)c1OC` (centres unmarked) [Example 351, 6-oxo-2-phenyl-N-[1-(3,4,5-trimethoxyphenyl)ethyl]-1,6-dihydropyrimidine-4-carboxamide]: the results for the Ki in assay [1] (setting [3]), in assay [1] (setting [5]) and in assay [2] (setting [6]) were 124 nM, 217 nM and 224 nM, respectively.

Regarding `Cc1nc(C(=O)NC(C)c2ccc(C(C)(C)C)cc2)cc(=O)[nH]1` (single isomer, unassigned) [Example 309, (R)- or (S)-N-[1-(4-tert-butylphenyl)ethyl]-2-methyl-6-oxo-1,6-dihydropyrimidine-4-carboxamide], the Ki in assay [1] (setting [3]) is 63 nM; in assay [2] (setting [4]), 43 nM.

Consider `Cc1nc(C(=O)N[C@@H](c2ccc(CC(F)(F)F)cc2)C(C)(C)C)cc(=O)[nH]1` [Example 61, (R)-N-(2,2-dimethyl-1-(4-(2,2,2-trifluoroethyl)phenyl)propyl)-2-methyl-6-oxo-1,6-dihydropyrimidine-4-carboxamide], for which the Ki was found to be 10 nM in assay [1] (setting [5]) and 8.2 nM in assay [2] (setting [6]).

For the compound `Cc1nc(C(=O)NC(C)c2ccc3cc[nH]c3c2)cc(=O)[nH]1` (centres unmarked) [Example 303, N-(1-(1H-indol-6-yl)ethyl)-2-methyl-6-oxo-1,6-dihydropyrimidine-4-carboxamide], the Ki in assay [1] (setting [3]) amounted to 208 nM; in assay [2] (setting [4]), 215 nM.

Turning to `Cc1nc(C(=O)NC(C)(C)c2ccc(OC(F)(F)F)cc2)cc(=O)[nH]1` [Example 273, 2-methyl-N-{1-methyl-1-[4-(trifluoromethoxy)phenyl]ethyl}-1,6-oxo-1,6-dihydropyrimidine-4-carboxamide], the Ki in assay [1] (setting [3]) was found to be 304 nM; in assay [2] (setting [4]), 278 nM.

For the compound `Cc1nc(C(=O)N[C@@H](c2ccc(SC(F)(F)F)c(F)c2)C2CC2)cc(=O)[nH]1` [Example 55, N-[(R)-cyclopropyl{3-fluoro-4-[(trifluoromethyl)sulfanyl]phenyl}methyl]-2-methyl-6-oxo-1,6-dihydropyrimidine-4-carboxamide], the Ki in assay [1] (setting [3]) was determined as 11 nM; in assay [2] (setting [4]), 7.8 nM.

Take `Cc1nc(C(=O)N[C@H](C)c2ccc(-c3ccccc3F)cc2)cc(=O)[nH]1` [Example 324, N-[(1R)-1-(2′-fluorobiphenyl-4-yl)ethyl]-2-methyl-6-oxo-1,6-dihydropyrimidine-4-carboxamide]: the Ki is 131 nM in assay [1] (setting [3]) and 138 nM in assay [2] (setting [4]).

Take `Cc1nc(C(=O)N[C@@H](c2ccc(S(F)(F)(F)(F)F)cc2)C(C)C)cc(=O)[nH]1` [Example 52, 2-methyl-N-{(1R)-2-methyl-1-[4-(pentafluoro-λ^6-sulfanyl)phenyl]propyl}-6-oxo-1,6-dihydropyrimidine-4-carboxamide]: the inhibitory constant (Ki) came to 5.1 nM in assay [1] (setting [3]), 6 nM in assay [1] (setting [5]) and 6.4 nM in assay [2] (setting [6]).

Consider `CC(C)(C)[C@@H](NC(=O)c1cc(=O)[nH]c(C2CC2)n1)c1ccc(SC(F)(F)F)cc1` [Example 439, 2-cyclopropyl-N-[(1R)-2,2-dimethyl-1-{4-[(trifluoromethyl)sulfanyl]phenyl}pro-pyl]-6-oxo-1,6-dihydropyrimidine-4-carboxamide], for which the inhibition constant (Ki) in assay [1] (setting [5]) came to 1 nM; in assay [2] (setting [6]), 1.3 nM.

On to `C[C@@H](NC(=O)c1cc(=O)[nH]c(C2CC2)n1)c1ccc(C(F)(F)F)cc1` [Example 11, 2-cyclopropyl-6-oxo-N-{(1R)-1-[4-(trifluoromethyl)phenyl]ethyl}-1,6-dihydropyrimidine-4-carboxamide], for which the Ki in assay [1] (setting [3]) is 21 nM; in assay [2] (setting [4]), 16 nM.

For `CC[C@@H](NC(=O)c1cc(=O)[nH]c(-c2ccccc2)n1)c1ccc(C(F)(F)F)c(F)c1` [Example 420, N-{(1R)-1-[3-fluoro-4-(trifluoromethyl)phenyl]propyl}-6-oxo-2-phenyl-1,6-dihydropyrimidine-4-carboxamide], the values for the Ki in assay [1] (setting [5]) and in assay [2] (setting [6]) were 7.3 nM and 5.9 nM, respectively.
